In ChEMBL document CHEMBL1201862, “PubChem BioAssay data set” (2004):
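Test compounds were applied to cells in 96-well plates for 48 hours at 5 doses. GI50 is the concentration that inhibits growth by half.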 Active and inactive are the calls of the source. No stated cut-off is given here; in the data, active = GI50 up to about 1.1 µM and inactive = higher.

What was measured:
Assay in all cases: DTP human tumour cell line panel, 48 h
Hs-578T = system: Hs-578T
OVCAR-3 = system: OVCAR-3
EKVX = system: EKVX
SK-OV-3 = system: SK-OV-3
ACHN = system: ACHN
MOLT-4 = system: MOLT-4
NCI-H23 = system: NCI-H23
MCF7 = system: MCF7
A498 = system: A498
K562 = system: K562
TK-10 = system: TK-10
SNB-75 = system: SNB-75
OVCAR-5 = system: OVCAR-5
SF-295 = system: SF-295
SW-620 = system: SW-620
HCT-116 = system: HCT-116
786-0 = system: 786-0
HCT-15 = system: HCT-15
CAKI-1 = system: CAKI-1
SK-MEL-28 = system: SK-MEL-28
DU-145 = system: DU-145
SK-MEL-5 = system: SK-MEL-5
PC-3 = system: PC-3
HOP-92 = system: HOP-92
MDA-N = system: MDA-N
NCI-H226 = system: NCI-H226
HT-29 = system: HT-29
T47D = system: T47D
IGROV-1 = system: IGROV-1
HL-60 = system: HL-60
SNB-19 = system: SNB-19
CCRF-CEM = system: CCRF-CEM
OVCAR-8 = system: OVCAR-8
Malme-3M = system: Malme-3M
M14 = system: M14
MDA-MB-435 = system: MDA-MB-435
SF-539 = system: SF-539
UO-31 = system: UO-31
U-251 = system: U-251
LOX IMVI = system: LOX IMVI
NCI/ADR-RES = system: NCI/ADR-RES
OVCAR-4 = system: OVCAR-4
SN12C = system: SN12C
COLO 205 = system: COLO 205
A549 = system: A549
SK-MEL-2 = system: SK-MEL-2
MDA-MB-231 = system: MDA-MB-231
SF-268 = system: SF-268
HCC 2998 = system: HCC 2998
KM12 = system: KM12
UACC-257 = system: UACC-257
NCI-H460 = system: NCI-H460
NCI-H522 = system: NCI-H522
BT-549 = system: BT-549
RPMI-8226 = system: RPMI-8226
UACC-62 = system: UACC-62

## O=C1C(OC(=O)c2ccccc2)=C(c2ccc(O)cc2)C(=O)C(OC(=O)c2ccccc2)=C1c1ccc(O)cc1
Hs-578T
  GI50: > 100 µM (inactive)
OVCAR-3
  GI50: 38.1 µM (inactive)
EKVX
  GI50: > 100 µM (inactive)
SK-OV-3
  GI50: 56.2 µM (inactive)
ACHN
  GI50: > 100 µM (inactive)
MOLT-4
  GI50: 36 µM (inactive)
NCI-H23
  GI50: > 100 µM (inactive)
MCF7
  GI50: > 100 µM (inactive)
A498
  GI50: > 100 µM (inactive)
K562
  GI50: > 100 µM (inactive)
TK-10
  GI50: > 100 µM (inactive)
SNB-75
  GI50: 78.5 µM (inactive)
OVCAR-5
  GI50: > 100 µM (inactive)
SF-295
  GI50: 61 µM (inactive)
SW-620
  GI50: > 100 µM (inactive)
HCT-116
  GI50: > 100 µM (inactive)
786-0
  GI50: > 100 µM (inactive)
HCT-15
  GI50: > 100 µM
CAKI-1
  GI50: > 100 µM (inactive)
SK-MEL-28
  GI50: > 100 µM (inactive)
DU-145
  GI50: > 100 µM (inactive)
SK-MEL-5
  GI50: > 100 µM (inactive)
PC-3
  GI50: > 100 µM (inactive)
HOP-92
  GI50: > 100 µM (inactive)
MDA-N
  GI50: > 100 µM (inactive)
NCI-H226
  GI50: > 100 µM (inactive)
HT-29
  GI50: > 100 µM (inactive)
T47D
  GI50: > 100 µM (inactive)
IGROV-1
  GI50: > 100 µM (inactive)
HL-60
  GI50: > 100 µM (inactive)
SNB-19
  GI50: 46 µM (inactive)
CCRF-CEM
  GI50: 42.9 µM (inactive)
OVCAR-8
  GI50: > 100 µM (inactive)
Malme-3M
  GI50: > 100 µM (inactive)
M14
  GI50: > 100 µM (inactive)
MDA-MB-435
  GI50: > 100 µM (inactive)
SF-539
  GI50: > 100 µM (inactive)
UO-31
  GI50: > 100 µM (inactive)
U-251
  GI50: 40.5 µM (inactive)
LOX IMVI
  GI50: 76.4 µM (inactive)
NCI/ADR-RES
  GI50: > 100 µM (inactive)
OVCAR-4
  GI50: 51.9 µM (inactive)
SN12C
  GI50: > 100 µM (inactive)
COLO 205
  GI50: > 100 µM (inactive)
A549
  GI50: > 100 µM (inactive)
SK-MEL-2
  GI50: 32 µM (inactive)
MDA-MB-231
  GI50: > 100 µM (inactive)
SF-268
  GI50: > 100 µM (inactive)
HCC 2998
  GI50: 40.3 µM (inactive)
KM12
  GI50: 60.5 µM (inactive)
UACC-257
  GI50: > 100 µM (inactive)
NCI-H460
  GI50: 74.1 µM (inactive)
NCI-H522
  GI50: > 100 µM (inactive)
BT-549
  GI50: > 100 µM (inactive)
RPMI-8226
  GI50: > 100 µM (inactive)
UACC-62
  GI50: 44.7 µM (inactive)
